Measured values: patent US20150315188A1, “COMPOUNDS AND METHODS FOR TREATMENT OF HYPERTENSION” (MEDIVATION TECHNOLOGIES, INC., priority 2012, published 2015)

Legend:
[1] = biological target: T1, Human adrenergic α1B receptor (Homo sapiens, UniProt P35368); experiment: β-Arrestin GPCR functional assay, adrenergic α1B (Protocol B); format: cell-based; conditions: β-arrestin, antagonist vs nor-epinephrine EC80
T1 sequence (P35368 1-520): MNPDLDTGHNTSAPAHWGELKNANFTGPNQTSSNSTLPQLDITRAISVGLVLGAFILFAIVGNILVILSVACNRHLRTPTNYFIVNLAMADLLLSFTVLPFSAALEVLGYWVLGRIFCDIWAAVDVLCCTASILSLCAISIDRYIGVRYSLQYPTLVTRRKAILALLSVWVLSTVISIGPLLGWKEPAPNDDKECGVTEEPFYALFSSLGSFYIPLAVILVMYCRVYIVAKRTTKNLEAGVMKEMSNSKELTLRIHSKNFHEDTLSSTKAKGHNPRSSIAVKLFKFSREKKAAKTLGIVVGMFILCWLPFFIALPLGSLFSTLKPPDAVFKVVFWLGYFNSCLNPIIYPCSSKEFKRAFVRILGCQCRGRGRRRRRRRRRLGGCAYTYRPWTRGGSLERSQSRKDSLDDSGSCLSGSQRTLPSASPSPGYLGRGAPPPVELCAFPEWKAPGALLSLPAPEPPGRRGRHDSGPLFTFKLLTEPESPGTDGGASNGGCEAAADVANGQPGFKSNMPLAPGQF
Experimental: To evaluate the activity of compounds in β-Arrestin GPCR functional assays, recombinant CHO cell line (DiscoveRX), over expressed with human adrenergic α1B receptor were used. The experiment was done with a kit of DiscoveRX as per recommended protocol of the supplier. Cells were harvested from culture flask using cell dissociation solution (CDS) and plated at a density of 12,000 cells/well in CP reagent (supplied with the kit) in a half area 96-well white polystyrene plate. After 24 h incubation at 37° C., compounds at various concentrations in 1% (final) DMSO were charged to the cells for 30 min at 37° C. Active nor-epinephrine (-NE) at its EC80 concentrations (50 nM) were then added to the cells and incubated for another 90 min at 37° C. Detection mix was prepared by mixing Path Hunter cell assay buffer, Emerald II solution and Galactone star solution in a ratio of 19:5:1 and incubated with the cells for 60 min at RT in the dark. The reading was taken in Envision at luminescence mode. Biochemical assay results are presented as the percent Inhibition in Table B2a, or IC50 values in Table B2b.

[2] = biological target: T2, Human adrenergic α2B receptor (Homo sapiens, UniProt P18089); experiment: Radioligand binding, adrenergic α2B (Protocol Group B); set-up: purchased Milipore (Millipore); conditions: Protocol Group B; for inhibition at 0.01 µM: read-out: Percentage inhibition of ligand binding, Adrenergic α2B (10 nM); for inhibition at 0.03 µM: read-out: Percentage inhibition of ligand binding, Adrenergic α2B (30 nM); for inhibition at 0.1 µM: 0.1 μM compound, read-out: Percentage inhibition of ligand binding, Adrenergic α2B (0.1 μM); for Ki: estimated Ki, read-out: Ki α2B
T2 sequence (P18089 1-450): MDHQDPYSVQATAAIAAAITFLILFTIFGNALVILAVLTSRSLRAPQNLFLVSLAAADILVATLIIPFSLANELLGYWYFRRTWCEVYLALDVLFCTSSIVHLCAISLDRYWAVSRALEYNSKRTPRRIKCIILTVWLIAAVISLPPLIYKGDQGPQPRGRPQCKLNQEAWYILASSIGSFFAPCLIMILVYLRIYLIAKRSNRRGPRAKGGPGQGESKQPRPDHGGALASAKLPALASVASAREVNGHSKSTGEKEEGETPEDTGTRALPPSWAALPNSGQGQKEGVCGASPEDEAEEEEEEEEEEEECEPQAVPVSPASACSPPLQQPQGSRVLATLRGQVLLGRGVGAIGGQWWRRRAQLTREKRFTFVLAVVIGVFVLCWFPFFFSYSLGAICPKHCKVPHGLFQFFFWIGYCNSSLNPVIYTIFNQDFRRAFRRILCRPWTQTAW
Outline: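 Compounds at various concentrations in 1% DMSO were tested on recombinant membranes in Tris-HCl pH 7.4 buffer containing MgCl2, CaCl2 and 0.2% BSA.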

[3] = biological target: T3, Human adrenergic α2A receptor (Homo sapiens, UniProt P08913); experiment: Radioligand binding, adrenergic α2A (Protocol Group B); set-up: purchased Milipore (Millipore); conditions: Protocol Group B; for inhibition at 0.1 µM: read-out: Percentage inhibition of ligand binding, Adrenergic α2A (0.1 μM); for inhibition at 0.3 µM: read-out: Percentage inhibition of ligand binding, Adrenergic α2A (0.3 μM); for Ki: estimated Ki
T3 sequence (P08913 1-465): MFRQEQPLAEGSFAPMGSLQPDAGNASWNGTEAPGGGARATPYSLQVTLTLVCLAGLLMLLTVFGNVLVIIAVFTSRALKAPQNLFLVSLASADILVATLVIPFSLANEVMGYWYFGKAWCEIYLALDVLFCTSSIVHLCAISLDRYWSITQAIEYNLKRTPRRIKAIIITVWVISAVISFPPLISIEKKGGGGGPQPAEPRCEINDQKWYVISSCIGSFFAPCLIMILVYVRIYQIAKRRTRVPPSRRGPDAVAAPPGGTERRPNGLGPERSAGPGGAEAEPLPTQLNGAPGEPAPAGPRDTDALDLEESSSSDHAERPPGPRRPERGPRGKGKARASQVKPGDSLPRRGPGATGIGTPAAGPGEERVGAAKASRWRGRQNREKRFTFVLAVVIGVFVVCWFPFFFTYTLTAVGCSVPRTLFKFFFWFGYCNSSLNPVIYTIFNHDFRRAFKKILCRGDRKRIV
Outline: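 Compounds (1% DMSO vehicle, various concentrations) competed against 2 nM [^3H]MK-912 on recombinant receptor membranes for 60 min at 25° C, Tris-HCl pH 7.4 buffer with Mg2+, Ca2+, BSA. Bound radioligand filtered and counted; 10 μM rauwolscine set nonspecific binding. Values: percent inhibition of specific binding or estimated Ki.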

Row | IC50 [1] [nM] | inhibition at 0.01 µM ([2]; 10 nM compound) [%] | inhibition at 0.03 µM ([2]; 30 nM compound) [%] | inhibition at 0.1 µM [2] [%] | Ki [2] [nM] | inhibition at 0.1 µM ([3]; 0.1 μM compound) [%] | inhibition at 0.3 µM ([3]; 0.3 μM compound) [%] | Ki [3] [nM] | Percentage inhibition of ligand binding, Adrenergic α2B (10 nM) ([2]; 10 nM compound, 0.01 µM) [%] | Percentage inhibition of ligand binding, Adrenergic α2B (30 nM) ([2]; 30 nM compound, 0.03 µM) [%] | Percentage inhibition of ligand binding, Adrenergic α2A (0.1 μM) ([3]; 0.1 μM compound, 0.1 µM) [%] | Percentage inhibition of ligand binding, Adrenergic α2A (0.3 μM) ([3]; 0.3 μM compound, 0.3 µM) [%] | SMILES
1 | 636 | 74 | 89 | 97 | 2.3 | 37 | 63 | 55 | – | – | – | – | CCCOC(Cn1c2c(c3cc(C)ccc31)CN(C)CC2)c1ccncc1 (single isomer, unassigned) [42a]
2 | 91 | 96 | 99 | 99 | 0.91 | 71 | 90 | 19.6 | – | – | – | – | Cc1cc(F)c2c(c1)c1c(n2CC(C)(O)c2ccncc2)CCN2CCCC12 (single isomer, unassigned) [81a]
3 | 719 | – | – | 87 | – | – | – | – | 8 | 40 | 3 | 22 | Cc1cc(F)cc2c3c(n(CC(C)(O)c4cccnc4)c12)CCN1CCCC31 (single isomer, unassigned) [75a]
4 | 121 | – | – | – | 1.4 | – | – | 55 | – | – | – | – | Cc1ccc2c(c1)c1c(n2CC(C)(O)c2ccc(F)nc2)CCN2CCCC12 (single isomer, unassigned) [6a]
